From US20260297542A1, “HERBICIDE RESISTANT PLANTS” (SYNGENTA CROP PROTECTION AG, priority 2023, published 2026)
Substitutions are numbered along the chain they refer to.

Tests used:
Assay in all cases: E. coli hemG growth inhibition by herbicide, AtPPO1 variant
Type in all cases: cell-based
Details in all cases: read-out: percentage growth inhibition
AtPPO1 A220C = molecular target: T1, AtPPO1 A220C (Arabidopsis thaliana, UniProt P55826, A220C)
T1 construct: expressed in transfected cells; host or cells: E. coli BL21(DE3) hemG (hemG replaced by CmR), pET24a plasmid
T1 sequence (P55826 35-537 A220C): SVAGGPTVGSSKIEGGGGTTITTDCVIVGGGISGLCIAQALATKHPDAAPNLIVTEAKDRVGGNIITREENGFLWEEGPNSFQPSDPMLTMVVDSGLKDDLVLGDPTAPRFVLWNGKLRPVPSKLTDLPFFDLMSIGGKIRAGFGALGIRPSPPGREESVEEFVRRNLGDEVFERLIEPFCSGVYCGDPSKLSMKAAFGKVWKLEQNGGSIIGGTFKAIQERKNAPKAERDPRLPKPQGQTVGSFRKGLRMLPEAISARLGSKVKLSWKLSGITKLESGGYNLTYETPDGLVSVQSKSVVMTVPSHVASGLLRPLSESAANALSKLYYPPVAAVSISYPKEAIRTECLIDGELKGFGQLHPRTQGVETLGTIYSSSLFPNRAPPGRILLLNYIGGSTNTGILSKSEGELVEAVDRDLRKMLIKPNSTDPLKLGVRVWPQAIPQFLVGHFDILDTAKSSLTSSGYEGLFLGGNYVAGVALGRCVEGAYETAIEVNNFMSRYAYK
Method in brief: (§1)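 E. coli BL21(DE3) ΔhemG::CmR complemented by AtPPO1 variants (pET24a, T7, E. coli codon-optimised); TB + 0.1 mM IPTG, 1:100 inoculum; 6.25 ppm herbicide 0/E or 0.78 ppm herbicide B vs DMSO; 24 h, 37° C, 250 rpm; OD600 at 24 h → % growth inhibition.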

AtPPO1 D448H = molecular target: T2, AtPPO1 D448H (Arabidopsis thaliana, UniProt P55826, D448H)
T2 construct: expressed in transfected cells; host or cells: E. coli BL21(DE3) hemG (pET24a, T7 promoter)
T2 sequence (P55826 35-537 D448H): T1 sequence (P55826 35-537 A220C) with C186A, D414H
Method in brief: as §1

AtPPO1 E212Y = molecular target: T3, AtPPO1 E212Y (Arabidopsis thaliana, UniProt P55826, E212Y)
T3 construct: expressed in transfected cells; host or cells: E. coli BL21(DE3) hemG (hemG replaced by CmR), pET24a plasmid
T3 sequence (P55826 35-537 E212Y): T1 sequence (P55826 35-537 A220C) with E178Y, C186A
Method in brief: as §1

AtPPO1 F214Y = molecular target: T4, AtPPO1 F214Y (Arabidopsis thaliana, UniProt P55826, F214Y)
T4 construct: expressed in transfected cells; host or cells: E. coli BL21(DE3) hemG (hemG replaced by CmR), pET24a plasmid
T4 sequence (P55826 35-537 F214Y): T1 sequence (P55826 35-537 A220C) with F180Y, C186A
Method in brief: as §1

| Compound | inhibition at 0.78 ppm (AtPPO1 A220C) | inhibition at 0.78 ppm (AtPPO1 D448H) | inhibition at 0.78 ppm (AtPPO1 E212Y) | inhibition at 0.78 ppm (AtPPO1 F214Y) | inhibition at 6.25 ppm (AtPPO1 A220C) | inhibition at 6.25 ppm (AtPPO1 D448H) | inhibition at 6.25 ppm (AtPPO1 E212Y) | inhibition at 6.25 ppm (AtPPO1 F214Y) |
| --- | --- | --- | --- | --- | --- | --- | --- | --- |
| C#CCN1C(=O)C(F)(F)Oc2cc(F)c(-n3c(=O)n(C)c(=S)n(C)c3=O)cc21 [Herbicide B, trifludimoxazin] | 15% | 31% | 25% | 26% |  |  |  |  |
| CCOC(=O)[C@]1(C)CC(c2cc(-n3c(=O)n(C)c(=S)n(C)c3=O)c(F)cc2Cl)=NO1 [Herbicide D, ethyl (5S)-3-[2-chloro-5-(3,5-dimethyl-2,6-dioxo-4-thioxo-1,3,5-triazinan-1-yl)-4-fluoro-phenyl]-5-methyl-4H-isoxazole-5-carboxylate] |  |  |  |  | 33% | 26% | 27% | 34% |
| CC(C)N(C)S(=O)(=O)NC(=O)c1cc(-n2c(=O)cc(C(F)(F)F)n(C)c2=O)c(F)cc1Cl [Herbicide E, saflufenacil] |  |  |  |  | 66% | 57% | 65% | 63% |
